Data published in ChEMBL document CHEMBL5727056, “Substituted indazoles, methods for the production thereof, pharmaceutical preparations that contain said new substituted indazoles, and use of said new substituted indazoles to produce drugs” (2019).

Molecular target: T1, Interleukin-1 receptor-associated kinase 4 (Homo sapiens, UniProt Q9NWZ3)
T1 sequence (Q9NWZ3 whole entry): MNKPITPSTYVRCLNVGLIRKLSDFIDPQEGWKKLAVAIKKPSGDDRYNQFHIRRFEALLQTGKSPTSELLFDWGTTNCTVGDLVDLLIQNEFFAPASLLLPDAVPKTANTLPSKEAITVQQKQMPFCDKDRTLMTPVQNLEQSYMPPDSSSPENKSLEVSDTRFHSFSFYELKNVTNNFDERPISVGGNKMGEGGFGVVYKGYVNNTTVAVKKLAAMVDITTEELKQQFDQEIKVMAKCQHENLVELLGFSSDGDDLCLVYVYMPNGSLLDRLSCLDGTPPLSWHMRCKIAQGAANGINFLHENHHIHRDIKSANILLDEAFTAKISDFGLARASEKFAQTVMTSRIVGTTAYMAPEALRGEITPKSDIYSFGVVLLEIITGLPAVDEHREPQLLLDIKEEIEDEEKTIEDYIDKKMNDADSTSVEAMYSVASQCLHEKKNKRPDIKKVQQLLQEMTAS
Assay: IRAK4 Kinase Assay: For the assay, 11 different concentrations in the range from 20 μM to 0.073 nM were prepared from a 2 mM DMSO solution of the test substance. 50 nl of the respective solution were pipetted into a black low-volume 384-well microtitre plate (Greiner Bio-One, Frickenhausen, Germany), 2 μl of a solution of IRAK4 in assay buffer [50 mM HEPES pH 7.5, 5 mM MgCl2, 1.0 mM …

IC50: 136 nM
Compound: COCCn1cc2cc(NC(=O)c3cccc(C(F)(F)F)n3)c(CO)cc2n1
